Like-named read-outs stand apart in the source and are kept apart here.

Format in all cases: cell-based
Assay [1] addresses T1, hTRPA1 (Homo sapiens, UniProt O75762).
T1 construct: gene TRPA1
The assay can be described thus: calcium fluorescence assay in HEK […] cells expressing hTRPA1 ([…]). Particulars: HEK293, read-out: % increase in [Ca]i at 30 μM.

In assay [2] the target is T1, hTRPA1. The assay can be described thus: calcium fluorescence assay and whole-cell patch clamp in HEK […] cells expressing hTRPA1. (In general: The patch-clamp technique gives a direct electrical read-out from membranes.)
Assay [3] has as its target T2, CaV3.1 (Homo sapiens, UniProt O43497).
T2 construct: gene CACNA1G
Kind of assay: patch clamp recording of CaV3.[…] channels, […].

For assay [4], the target named is T3, mTRPA1 (Mus musculus, UniProt Q8BLA8).
T3 construct: gene Trpa1
The assay can be described thus: calcium fluorescence assay in HEK […] cells expressing mouse TRPA1 ([…]). Particulars: HEK293; read-out: % of CA (300 μM) response at 100 μM.

The target in assay [5] is T1, hTRPA1. The assay can be described thus: calcium fluorescence assay and whole-cell patch clamp in HEK […] cells expressing hTRPA1. The source holds these as a separate data set.
Assay [6] concerns the target T1, hTRPA1. The assay can be described thus: calcium fluorescence assay in HEK […] cells expressing hTRPA1 ([…]). Particulars: HEK293; read-out: % increase in [Ca]i at 30 μM.
In assay [7] the target is T1, hTRPA1. The assay is described as above. Particulars: HEK293; read-out: Change in RFU (% Predrug).

T1 sequence (O75762 whole entry): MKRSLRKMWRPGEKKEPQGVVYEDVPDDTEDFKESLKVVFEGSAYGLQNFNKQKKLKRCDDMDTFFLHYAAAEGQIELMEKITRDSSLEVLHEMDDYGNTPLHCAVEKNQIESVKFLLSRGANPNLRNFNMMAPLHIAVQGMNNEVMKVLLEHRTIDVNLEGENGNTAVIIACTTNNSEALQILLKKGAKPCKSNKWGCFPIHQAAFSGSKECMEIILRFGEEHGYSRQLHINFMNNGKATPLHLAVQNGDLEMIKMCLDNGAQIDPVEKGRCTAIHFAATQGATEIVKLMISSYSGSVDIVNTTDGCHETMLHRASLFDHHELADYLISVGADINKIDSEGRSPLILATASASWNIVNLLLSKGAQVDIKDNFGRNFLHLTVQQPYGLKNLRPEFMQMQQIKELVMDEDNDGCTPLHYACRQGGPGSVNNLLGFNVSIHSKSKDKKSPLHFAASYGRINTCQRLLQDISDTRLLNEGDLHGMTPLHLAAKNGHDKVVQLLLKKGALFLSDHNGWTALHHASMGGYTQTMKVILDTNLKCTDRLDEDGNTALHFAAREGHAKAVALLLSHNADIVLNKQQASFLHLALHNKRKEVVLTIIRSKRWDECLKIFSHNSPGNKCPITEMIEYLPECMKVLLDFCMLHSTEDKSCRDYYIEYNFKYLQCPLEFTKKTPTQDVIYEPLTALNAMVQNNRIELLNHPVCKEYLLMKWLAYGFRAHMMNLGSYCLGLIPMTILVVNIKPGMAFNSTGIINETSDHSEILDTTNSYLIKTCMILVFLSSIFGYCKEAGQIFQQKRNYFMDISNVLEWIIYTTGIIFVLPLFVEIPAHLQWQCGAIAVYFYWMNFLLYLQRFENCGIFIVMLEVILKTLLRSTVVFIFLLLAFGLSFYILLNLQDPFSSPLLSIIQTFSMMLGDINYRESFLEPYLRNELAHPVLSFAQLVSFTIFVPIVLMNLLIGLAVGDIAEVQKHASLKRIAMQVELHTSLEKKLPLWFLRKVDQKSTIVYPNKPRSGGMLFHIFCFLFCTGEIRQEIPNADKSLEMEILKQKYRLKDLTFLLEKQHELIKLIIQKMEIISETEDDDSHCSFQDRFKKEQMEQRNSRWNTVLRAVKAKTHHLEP
T2 sequence (O43497 whole entry): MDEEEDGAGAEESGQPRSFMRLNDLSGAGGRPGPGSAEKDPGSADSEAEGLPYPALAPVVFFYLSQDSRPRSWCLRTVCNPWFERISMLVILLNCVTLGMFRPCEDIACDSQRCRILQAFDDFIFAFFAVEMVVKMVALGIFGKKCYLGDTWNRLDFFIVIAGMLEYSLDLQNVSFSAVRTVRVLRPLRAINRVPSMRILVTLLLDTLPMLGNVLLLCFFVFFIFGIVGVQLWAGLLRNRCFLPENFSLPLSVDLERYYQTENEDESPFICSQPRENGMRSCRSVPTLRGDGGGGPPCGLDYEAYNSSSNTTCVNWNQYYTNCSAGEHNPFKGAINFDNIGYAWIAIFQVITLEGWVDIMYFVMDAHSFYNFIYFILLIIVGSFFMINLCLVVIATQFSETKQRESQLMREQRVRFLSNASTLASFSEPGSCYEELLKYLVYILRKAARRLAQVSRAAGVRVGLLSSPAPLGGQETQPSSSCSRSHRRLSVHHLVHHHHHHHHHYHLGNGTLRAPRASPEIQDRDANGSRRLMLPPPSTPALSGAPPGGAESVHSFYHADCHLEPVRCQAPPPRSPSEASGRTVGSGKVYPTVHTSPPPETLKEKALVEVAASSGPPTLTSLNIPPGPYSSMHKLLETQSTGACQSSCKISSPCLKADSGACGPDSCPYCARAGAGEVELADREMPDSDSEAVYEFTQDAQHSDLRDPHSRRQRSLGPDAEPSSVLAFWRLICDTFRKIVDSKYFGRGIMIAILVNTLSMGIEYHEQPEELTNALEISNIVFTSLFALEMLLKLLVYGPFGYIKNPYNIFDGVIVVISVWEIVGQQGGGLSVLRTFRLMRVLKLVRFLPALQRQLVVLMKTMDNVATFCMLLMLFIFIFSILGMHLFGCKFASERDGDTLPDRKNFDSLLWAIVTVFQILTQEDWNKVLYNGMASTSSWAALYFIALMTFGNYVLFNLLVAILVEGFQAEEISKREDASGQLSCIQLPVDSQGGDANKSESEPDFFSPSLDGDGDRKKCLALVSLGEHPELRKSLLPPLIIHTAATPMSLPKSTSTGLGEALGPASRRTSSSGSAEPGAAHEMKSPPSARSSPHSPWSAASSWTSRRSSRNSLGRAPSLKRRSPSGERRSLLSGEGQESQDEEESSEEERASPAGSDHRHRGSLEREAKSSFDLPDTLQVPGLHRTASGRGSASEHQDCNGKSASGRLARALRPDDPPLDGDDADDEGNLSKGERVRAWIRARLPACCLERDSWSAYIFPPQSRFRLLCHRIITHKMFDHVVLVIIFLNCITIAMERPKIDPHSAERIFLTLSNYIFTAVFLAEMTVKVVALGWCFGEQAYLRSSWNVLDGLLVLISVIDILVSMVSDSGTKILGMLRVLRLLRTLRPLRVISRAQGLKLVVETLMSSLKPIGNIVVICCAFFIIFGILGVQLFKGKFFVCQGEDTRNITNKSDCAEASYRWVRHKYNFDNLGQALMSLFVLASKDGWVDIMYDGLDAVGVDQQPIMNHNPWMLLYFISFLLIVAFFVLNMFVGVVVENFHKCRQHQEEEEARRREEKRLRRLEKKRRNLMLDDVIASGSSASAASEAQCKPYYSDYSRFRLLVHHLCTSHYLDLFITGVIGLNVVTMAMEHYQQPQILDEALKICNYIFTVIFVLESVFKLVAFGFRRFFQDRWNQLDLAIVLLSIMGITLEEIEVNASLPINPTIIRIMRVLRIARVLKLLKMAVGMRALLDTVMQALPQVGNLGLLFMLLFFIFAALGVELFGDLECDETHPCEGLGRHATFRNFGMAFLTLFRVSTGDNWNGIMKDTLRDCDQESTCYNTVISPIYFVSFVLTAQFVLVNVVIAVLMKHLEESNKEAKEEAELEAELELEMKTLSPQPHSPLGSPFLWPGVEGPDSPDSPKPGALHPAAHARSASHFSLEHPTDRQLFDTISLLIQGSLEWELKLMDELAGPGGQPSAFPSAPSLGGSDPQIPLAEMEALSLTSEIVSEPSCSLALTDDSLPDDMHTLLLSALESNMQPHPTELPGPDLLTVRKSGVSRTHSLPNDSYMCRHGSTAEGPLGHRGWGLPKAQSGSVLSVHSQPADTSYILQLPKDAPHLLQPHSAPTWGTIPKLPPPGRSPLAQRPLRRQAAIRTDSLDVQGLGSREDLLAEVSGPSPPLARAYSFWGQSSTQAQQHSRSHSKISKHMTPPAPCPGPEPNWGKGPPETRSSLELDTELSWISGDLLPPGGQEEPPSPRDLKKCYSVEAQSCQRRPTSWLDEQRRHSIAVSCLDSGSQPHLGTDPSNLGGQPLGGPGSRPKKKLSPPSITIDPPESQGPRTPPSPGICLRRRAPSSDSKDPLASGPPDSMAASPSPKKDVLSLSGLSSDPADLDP
T3 sequence (Q8BLA8 whole entry): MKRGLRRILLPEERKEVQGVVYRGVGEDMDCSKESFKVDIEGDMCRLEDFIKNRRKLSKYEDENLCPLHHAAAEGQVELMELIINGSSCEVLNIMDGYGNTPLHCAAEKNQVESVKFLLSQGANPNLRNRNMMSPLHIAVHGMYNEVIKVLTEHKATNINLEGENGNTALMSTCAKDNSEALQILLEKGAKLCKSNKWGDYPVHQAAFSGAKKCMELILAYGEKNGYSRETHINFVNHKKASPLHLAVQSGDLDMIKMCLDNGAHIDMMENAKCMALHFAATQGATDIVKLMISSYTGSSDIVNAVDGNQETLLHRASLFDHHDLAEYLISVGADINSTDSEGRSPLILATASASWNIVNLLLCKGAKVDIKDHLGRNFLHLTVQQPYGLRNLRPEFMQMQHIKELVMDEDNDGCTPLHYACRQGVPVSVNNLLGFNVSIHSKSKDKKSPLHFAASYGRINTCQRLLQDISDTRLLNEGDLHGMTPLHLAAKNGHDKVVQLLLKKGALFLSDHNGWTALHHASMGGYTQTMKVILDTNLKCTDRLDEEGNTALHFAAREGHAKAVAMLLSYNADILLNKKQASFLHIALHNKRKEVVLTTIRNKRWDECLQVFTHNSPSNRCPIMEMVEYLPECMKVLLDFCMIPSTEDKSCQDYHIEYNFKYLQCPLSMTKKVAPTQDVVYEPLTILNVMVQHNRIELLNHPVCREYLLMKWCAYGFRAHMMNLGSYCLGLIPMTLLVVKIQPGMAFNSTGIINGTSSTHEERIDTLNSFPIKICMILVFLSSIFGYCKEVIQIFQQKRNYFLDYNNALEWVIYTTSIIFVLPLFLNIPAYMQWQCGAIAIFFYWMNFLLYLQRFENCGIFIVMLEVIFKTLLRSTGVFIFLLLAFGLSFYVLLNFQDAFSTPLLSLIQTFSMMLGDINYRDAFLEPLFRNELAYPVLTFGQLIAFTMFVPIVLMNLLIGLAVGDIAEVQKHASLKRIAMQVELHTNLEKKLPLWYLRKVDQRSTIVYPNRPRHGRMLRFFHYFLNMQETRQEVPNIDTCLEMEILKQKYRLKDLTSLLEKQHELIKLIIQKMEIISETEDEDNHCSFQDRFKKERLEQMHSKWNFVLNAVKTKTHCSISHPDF

On to `CCCCC/C=C\C/C=C\C/C=C\C/C=C\CCCC(=O)N[C@@H](Cc1ccc(O)cc1)C(=O)O` [NA-Tyr, N-arachidonoyl tyrosine], for which the activation at 30 µM in assay [1] amounted to 172 ± 20%. Usually EC50 stands for the concentration needed to bring the measured effect to its halfway point. As to `O=C/C=C/c1ccccc1` [CA, Cinnamaldehyde], the EC50 in assay [2] was determined as 11 ± 2 µM.

A word on the inhibition: it is how much of the control response was suppressed. A higher inhibition goes with strong suppression. Regarding `CCCCC/C=C\C/C=C\C/C=C\C/C=C\CCCCCC(=O)O` [adrenic acid], in assay [3], the inhibition at 10 µM stood at 64 ± 8%. The same measure, in the same setting: the result for `CCCCC/C=C\C/C=C\C/C=C\C/C=C\CCCC(=O)O` [AA, ω6-arachidonic acid] reads 81 ± 4%. Regarding `CCCCC/C=C\C/C=C\C/C=C\C/C=C\CCCC(=O)O` [AA, arachidonic acid], the Emax at 100 µM in assay [4] stood at 81 ± 4%. In assay [5], the EC50 stood at 13 ± 4 µM.

As to `CCCCC/C=C\C/C=C\C/C=C\C/C=C\CCCC(=O)NCCO` [AEA, anandamide], the activation at 30 µM in assay [6] was determined as 227 ± 42%. With `CCCCC/C=C\C/C=C\C/C=C\C/C=C\CCCC(=O)OC` [AA-ME, Arachidonic acid methyl ester], the activation at 30 µM in assay [7] was found to be 302 ± 53%.

These data come from paper PMC3913255, “Ligand determinants of fatty acid activation of the pronociceptive ion channel TRPA1” (PeerJ, 2014).
